The term melting point denotes the temperature, or range, at which the solid turns liquid.

Read-outs that look alike come from different tables or passages of the source.

The record followed here is patent US9510592B2, “Pesticidal compositions and processes related thereto” (Dow AgroSciences LLC, priority 2012, dated 2016).

Series [1] relates to Beet Armyworm (Spodoptera exigua). In words: Bioassay on Beet Armyworm (BAW), 128-well diet tray assay. Type of series: in vivo. The settings on record: Spodoptera exigua, 168 h, percent mortality of second instar larvae, 50 μg/cm^2 on artificial diet, five to seven days, 25° C., read-out: BAW Rating. The method in brief: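 Second-instar larvae (one to five per well) were placed on artificial diet surface-treated with 50 μg/cm^2 compound in acetone-water and held at 25 °C, 14:10 light-dark, for five to seven days. Percent mortality was averaged over eight wells.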

Series [2] has as its system Corn Earworm (Helicoverpa zea). The series can be described thus: Bioassay on Corn Earworm (CEW), 128-well diet tray assay. Type of series: in vivo. The settings on record: Helicoverpa zea, 168 h; percent mortality of second instar larvae, 50 μg/cm^2 on artificial diet, five to seven days, 25° C.; Table 3; read-out: CEW Rating. As to the method: (§1) Certain molecules disclosed in this document were tested against BAW and CEW and CL using procedures described in the following examples. In the reporting of the results, the “BAW & CEW & CL Rating Table” was used (See Table Section).
Bioassays On CEW (Helicoverpa zea)
Bioassays on CEW were conducted using a 128-well diet tray assay. one to five second instar CEW larvae were placed in each well (3 mL) of the diet tray that had been previously filled with 1 mL of artificial diet to which 50 μg/cm^2 of the test compound (dissolved in 50 μL of 90:10 acetone-water mixture) had been applied (to each of eight wells) and then allowed to dry. Trays were covered with a clear self-adhesive cover, and held at 25° C., 14:10 light-dark for five to seven days. Percent mortality was recorded for the larvae in each well; activity in the eight wells was then averaged. The results are indicated in the table entitled “Table 3: Assay Results” (See Table Section).

Series [3] deals with Green Peach Aphid (Myzus persicae). In words: Bioassay on Green Peach Aphid (GPA), foliar spray on cabbage seedlings. The settings on record: 72 h, corrected % control (Abbott), 200 ppm spray on cabbage seedlings, three days. Type of series: in vivo. On the procedure:
Certain molecules disclosed in this document were tested against GPA using procedures described in the following example. In the reporting of the results, the “GPA Rating Table” was used (See Table Section). Cabbage seedlings grown in 3-inch pots, with 2-3 small (3-5 cm) true leaves, were used as test substrate. The seedlings were infested with 20-50 GPA (wingless adult and nymph stages) one day prior to chemical application. Four pots with individual seedlings were used for each treatment. Test compounds (2 mg) were dissolved in 2 mL of acetone/MeOH (1:1) solvent, forming stock solutions of 1000 ppm test compound. The stock solutions were diluted 5× with 0.025% Tween 20 in water to obtain the solution at 200 ppm test compound. A hand-held aspirator-type sprayer was used for spraying a solution to both sides of […] leaves until runoff. Reference plants (solvent check) were sprayed with the diluent only containing 20% by volume of acetone/MeOH (1:1) solvent. Treated plants were held in a holding room for three days at approximately 25° C. and ambient relative humidity (RH) prior to grading. Evaluation was conducted by counting the number of live aphids per plant under a microscope. Percent Control was measured by using Abbott's correction formula (W. S. Abbott, “A Method of Computing the Effectiveness of an Insecticide” J. Econ. Entomol. 18 (1925), pp. 265-267) as follows. Corrected % Control=100*(X−Y)/X • where • X=No. of live aphids on solvent check plants and • Y=No. of live aphids on treated plants The results are indicated in the table entitled “Table 3: Assay Results” (See Table Section).

Series [4] deals with Cabbage Looper (Trichoplusia ni). In words: Bioassay on Cabbage Looper (CL), 128-well diet tray assay. It counts as in vivo. The settings on record: percent mortality of second instar larvae, 50 μg/cm^2 on artificial diet, five to seven days, 25° C.; Table 3A. On the procedure: as §1
Bioassays on CL (Trichoplusia ni)
Bioassays on CL were conducted using a 128-well diet tray assay. One to five second instar CL larvae were placed in each well (3 mL) of the diet tray that had been previously filled with 1 mL of artificial diet to which 50 μg/cm^2 of the test compound (dissolved in […] of 90:10 acetone-water mixture) had been applied (to each of eight wells) and then allowed to dry. Trays were covered with a clear self-adhesive cover, and held at 25° C., 14:10 light-dark for five to seven days. Percent mortality was recorded for the larvae in each well; activity in the eight wells was then averaged. The results are indicated in the table entitled “Table 3A: Assay Results” (See Table Section).

In turn, `NC(=O)c1ccc(/C=C/C(c2cc(Cl)cc(Cl)c2)C(F)(F)F)cc1` (stereo not shown) [AC2] displayed a melting point of 110 to 112 °C.

For `Cc1cc(/C=C/C(c2cc(Cl)cc(Cl)c2)C(F)(F)F)ccc1C(=O)NC(C)c1ccc(Cl)nc1` (stereo not shown) [AC44], the pest or weed control at 50 µg/cm2, 50 µg/cm2 in series [1] (Table 3) was 50 to 100%. The pest or weed control at 50 µg/cm2 in series [2] is 50 to 100%. Besides, the pest or weed control at 200 ppm in series [3] (Table 3, read-out: GPA Rating) fell in the range of 0 to 80%.

Consider `O=C(CNC(=O)c1ccc(/C=C/C(c2cc(Cl)cc(Cl)c2)C(F)(F)F)cc1Cl)NCC(F)(F)F` (stereo not shown) [AC57], for which, in series [1] (Table 3), the pest or weed control at 50 µg/cm2, 50 µg/cm2 lay in the range of 50 to 100%. In addition, the pest or weed control at 50 µg/cm2 in series [2] lay in the range of 50 to 100%. In series [3] (Table 3, read-out: GPA Rating), the pest or weed control at 200 ppm fell in the range of 0 to 80%.

As to `Cc1cc(/C=C/C(c2cc(Cl)cc(Cl)c2)C(F)(F)F)cnc1C(=O)NCc1ccc(Cl)nc1` (stereo not shown) [AC60], the pest or weed control at 50 µg/cm2, 50 µg/cm2 in series [1] (Table 3) fell in the range of 50 to 100%. Besides, in series [2], the pest or weed control at 50 µg/cm2 lay within 50 to 100%. For the same compound, the pest or weed control at 200 ppm in series [3] (Table 3, read-out: GPA Rating) fell in the range of 0 to 80%.

Consider `Cc1cc(/C=C/C(c2cc(Cl)cc(Cl)c2)C(F)(F)F)ccc1C(=O)N[C@H]1C[S@@+]([O-])C1` (stereo partly shown) [AC82], for which the pest or weed control at 50 µg/cm2, 50 µg/cm2 in series [1] (Table 3) is 50 to 100%. In addition, the pest or weed control at 50 µg/cm2 in series [2] lay within 50 to 100%. Also, in series [3] (Table 3, read-out: GPA Rating), the pest or weed control at 200 ppm is 0 to 80%.

For `O=C(CC(F)(F)F)NC1CCc2cc(/C=C/C(c3cc(Cl)c(Cl)c(Cl)c3)C(F)(F)F)ccc21` (stereo not shown) [BC4, (E)-3,3,3-Trifluoro-N-(5-(4,4,4-trifluoro-3-(3,4,5-trichlorophenyl)but-1-enyl)-2,3-dihydro-1H-inden-1-yl)propanamide], the pest or weed control at 50 µg/cm2, 50 µg/cm2 in series [1] (Table 3) is 50 to 100%. Besides, the pest or weed control at 50 µg/cm2 in series [2] is 50 to 100%. For the same compound, in series [3] (Table 3, read-out: GPA Rating), the pest or weed control at 200 ppm lay within 0 to 80%.

`O=C(CC(F)(F)F)NCc1ccc(/C=C/C(c2cc(Cl)c(Cl)c(Cl)c2)C(F)(F)F)cc1Cl` (stereo not shown) [CC10]: in series [1] (Table 3), the pest or weed control at 50 µg/cm2, 50 µg/cm2 was in the range of 50 to 100%. The pest or weed control at 50 µg/cm2 in series [2] lay within 50 to 100%. Moreover, the pest or weed control at 200 ppm in series [3] (Table 3, read-out: GPA Rating) was in the range of 0 to 80%.

With `O=C(NCc1ccc(/C=C/C(c2cc(Cl)c(Cl)c(Cl)c2)C(F)(F)F)cc1)c1ccnc(Cl)c1` (stereo not shown) [CC13], in series [1] (Table 3), the pest or weed control at 50 µg/cm2, 50 µg/cm2 was 50 to 100%. For the same compound, in series [2], the pest or weed control at 50 µg/cm2 lay in the range of 50 to 100%. For the same compound, the pest or weed control at 200 ppm in series [3] (Table 3, read-out: GPA Rating) was in the range of 0 to 80%.

For `O=C(CC(F)(F)F)NCc1ccc(/C=C/C(c2cc(Cl)c(F)c(Cl)c2)C(F)(F)F)cc1` (stereo not shown) [CC16], the pest or weed control at 50 µg/cm2, 50 µg/cm2 in series [1] (Table 3) was 50 to 100%. Moreover, the pest or weed control at 50 µg/cm2 in series [2] is 50 to 100%. For the same compound, in series [3] (Table 3, read-out: GPA Rating), the pest or weed control at 200 ppm lay in the range of 0 to 80%.

Regarding `O=C(CC(F)(F)F)NNC(=O)c1ccc(/C=C/C(c2cc(Cl)c(Cl)c(Cl)c2)C(F)(F)F)cc1Br` (stereo not shown) [Compound F1], the “CL Rating” value in series [4] is given as “A (50-100)”. For the same compound, the pest or weed control at 50 µg/cm2, 50 µg/cm2 in series [1] (Table 3A) lay in the range of 50 to 100%.

For the compound `CCC(=O)NNC(=O)c1ccc(/C=C/C(c2cc(Cl)c(Cl)c(Cl)c2)C(F)(F)F)cc1Br` (stereo not shown) [Compound F8], in series [4], the “CL Rating” value is “A (50-100)”. For the same compound, the pest or weed control at 50 µg/cm2, 50 µg/cm2 in series [1] (Table 3A) is 50 to 100%.

Consider `CCC(=O)N(C)NC(=O)c1ccc(/C=C/C(c2cc(Cl)c(Cl)c(Cl)c2)C(F)(F)F)cc1Br` (stereo not shown) [Compound F11, (E)-2-Bromo-N′-methyl-N′-propionyl-4-(4,4,4-trifluoro-3-(3,4,5-trichlorophenyl)but-1-en-1-yl)benzohydrazide], for which the “CL Rating” value in series [4] is “A (50-100)”. Besides, in series [1] (Table 3A), the pest or weed control at 50 µg/cm2, 50 µg/cm2 lay within 50 to 100%.

As for `O=C(NCCNC(=O)C(F)(F)F)c1ccc(/C=C/C(c2cc(Cl)c(Cl)c(Cl)c2)C(F)(F)F)cc1Br` (stereo not shown) [Compound F33], the “CL Rating” value in series [4] is on record as “A (50-100)”. Besides, the pest or weed control at 50 µg/cm2, 50 µg/cm2 in series [1] (Table 3A) was in the range of 50 to 100%. Besides, the pest or weed control at 200 ppm in series [3] (Table 3A, read-out: GPA Rating) is 0 to 80%.

In the case of `N#Cc1cc(/C=C/C(c2ccc(Cl)c(Cl)c2)C(F)(F)F)ccc1-n1cncn1` (stereo not shown) [DC28], the pest or weed control at 50 µg/cm2, 50 µg/cm2 in series [1] (Table 3) is 50 to 100%. Also, in series [2], the pest or weed control at 50 µg/cm2 is 50 to 100%. For the same compound, in series [3] (Table 3, read-out: GPA Rating), the pest or weed control at 200 ppm fell in the range of 0 to 80%.

On to `N#Cc1cc(/C=C/C(c2cc(Cl)c(Cl)c(Cl)c2)C(F)(F)F)ccc1-n1cncn1` (stereo not shown) [DC31], for which, in series [1] (Table 3), the pest or weed control at 50 µg/cm2, 50 µg/cm2 was in the range of 50 to 100%. For the same compound, the pest or weed control at 50 µg/cm2 in series [2] is 50 to 100%. Also, the pest or weed control at 200 ppm in series [3] (Table 3, read-out: GPA Rating) lay within 0 to 80%.
